Data on 1 sequence can be found in patent publication US10336788B2, “Inhibition of cardiac fibrosis in myocardial infarction” (Moerae Matrix, Inc., priority 2014, dated 2019).

Assay [1] deals with primary cardiac fibroblasts. The assay is described as follows: LDH release assay in primary cardiac fibroblasts (1% hypoxia or normoxia). In kind it is cell-based, rat. As for the experimental part: (§1) H9C2 is a myoblast cell line derived from rat myocardium obtained from ATCC® (CRL-1446, ATCC, Manassas, Va.) and cultured according to the recommended protocols. Briefly, cells were maintained at 37° C. with 5% CO2 in DMEM supplemented with 10% fetal bovine serum and antibiotics (100 U/ml penicillin, […] streptomycin) and split at a ratio of 1:4 using 0.05% trypsin every 36 hours. […]
Cells were rinsed in PMS and grown in DMEM (cat. #11966-025, Gibco) for 2 hours prior to initiating hypoxia (simulated ischemia). […] Three different time points were adopted for each of the three cell lines according to the severity of cell death under hypoxia determined by LDH release: for H9C2 cell line: 8 hr; 16 hr; 24 hr; for HL-1 cell line: 4 hr; 8 hr; 12 hr; […]; 32 hr; 48 hr.
(§2) Cell death was first determined using an LDH release assay (cat. #630117, Clontech), according to the manufacturer's instructions. […] Caspase 3/7 activity was next determined using a commercial Caspase 3/7 activity kit (Cat. #G8091, Promega, Madison, Wis. 53711) in a 384 well plate (Cat. #781903, Greiner bio-one) according to the manufacturer's instructions. […] The resulting cell lysates (25 μl, with 0.6 ug total protein) and Caspase-Glo 3/7 Reagent were added to each well in a 1:1 ratio and the luminescence was read (CLARIOstar, BMG LABTECH GmbH). […]

The next assay deals with H9C2 cells. Nature of the assay: Caspase 3/7 activity in H9C2 cells challenged with 1% hypoxia. In kind it is cell-based, rat. The following applies: 100 μM, 16 and 24 hours. On the procedure:
as §1
Cells were rinsed in PMS and grown in DMEM (cat. #11966-025, Gibco) for 2 hours prior to initiating hypoxia (simulated ischemia). […] Three different time points were adopted for each of the three cell lines according to the severity of cell death under hypoxia determined by LDH release: for H9C2 cell line: 8 hr; 16 hr; 24 hr; for HL-1 cell line: 4 hr; 8 hr; 12 hr; for cardiac fibroblast cell line: 16 hr; 32 hr; 48 hr.
as §2

No end group written: not given here.

For the sequence YARAAARQARAKALARQLGVAA [MMI-0100], in assay [1] (16, 32, and 48 hours of hypoxia), the LDH release entry is recorded as “significantly enhanced”. The “LDH release in normoxic conditions” value in assay [1] (absence of hypoxia, 4 hours (so in the source)) is on record as “did not enhance LDH release”. Further, in the assay with H9C2 cells, the “caspase 3/7 activity” value was “inhibited”.
